Laboratory results as given in patent US20170015555A1, “LONG-TERM PRESERVATION AND NOVEL APPLICATION OF CHLOROUS ACID AQUEOUS SOLUTION FORMULATION” (priority 2013, published 2017).

What was measured:
pathogenic microbes = test: Preventing secondary contamination upon treating vomit, summary over all tested microbes; assay type: cell-based
Text: (§1) 1) Chlorous acid aqueous solution formulation (see Example 1: Table 11) Treatment sheet (material: 100% cotton): (about 27×40 cm) *Impregnated at a ratio of weight of treatment sheet (g): amount of liquid (ml)=1:3 2) Imitation vomit (hereinafter, referred to as vomit) Miso solution: adjusted to pH 2 with hydrochloric acid 3) Test Microbes that were used E. coli: Escherichia coli IF03927 Staphylococcus aureus: Staphylococcus aureus IF0 12732 Thermoduric Microbes (Bacillus cereus): Bacillus cereus NBRC15305 Microbes of the genus Salmonella: Salmonella Enteritidis IF03313 Enterohemorrhagic Escherichia coli 0157: Escherichia coli 0157 Enterohemorrhagic Escherichia coli 0111: Escherichia coli 0111 Enterohemorrhagic Escherichia coli 026: Escherichia coli O26
(§2) Permeability of pathogenic microbes into a treatment sheet when treating vomit was examined to compare effects of preventing secondary contamination. (1) Imitation vomit is spread in an area about the size of an A4 sheet. (2) 30 agent solution-containing treatment sheets were laid thereon and left standing for 10 minutes. (3) Treatment sheets were removed one at a time from the top. After diluting with saline, the sample was spread in a petri dish and cultured.

[1] = test system: E. coli: Escherichia coli IF03927; test: Permeability of pathogenic microbes when treatment sheets were laid on vomit; assay type: cell-based; parameters: unit not given here; settings: 1000 ppm available chlorine
Text: as §1, §2

[2] = test system: Staphylococcus aureus IF0 12732; test: as above; assay type: cell-based; parameters: unit not given here; settings: 1000 ppm available chlorine
Text: as §1, §2

[3] = test system: Thermoduric Microbes (Bacillus cereus): Bacillus cereus NBRC15305; test: as above; assay type: cell-based; parameters: unit not given here; settings: 1000 ppm available chlorine
Text: as §1, §2

[4] = Deodorizing effect (chemical deodorization, gas detector tube); settings: 400 ppm, spray 20 cc
Text: In order to evaluate tests on deodorizing effects, the present Example examined deodorizing effects by using standards regarding air freshening and deodorization ([II]-2 Method of Testing Deodorizing Efficacy (Chemical Deodorization)) set forth by the Air Fresheners and Deodorizers Conference (http://www.houkou.gr.jp/) as the efficacy testing method, which is adopted by Japan Food Research Laboratories.
Ammonium odor: Ammonium Standard Solution II (Wako Pure Chemical Industries, for testing malodorous substances) Amine odor: methyl mercaptan standard solution (Wako Pure Chemical Industries, for testing malodorous substances) Sulfur odor: hydrogen sulfide (self-made, used hydrogen sulfide that was generated by adding sulfuric acid to zinc sulfide)
Gas detector tube made by GASTEC Corporation Ammonium odor: Detector tube ammonium 3 L made by GASTEC Corporation Amino odor: Detector tube methyl mercaptan 71 made by GASTEC Corporation Sulfur odor: Detector tube hydrogen sulfide 4 LL made by GASTEC Corporation
Tests were conducted in compliance with ([II]-2 Method of Testing Deodorizing Efficacy (Chemical Deodorization)) set forth by the Air Fresheners and Deodorizers Conference.
The tests were carried out by static culture method, using a commercially-available airbag with a spigot having a volume of about 10 L as test containers. The volume of airbags was appropriately changed in accordance with the size of the product.
The bags were filled with odorless air. Malodor concentrations were measured over time at room temperature (about 20° C.). (3 points or higher, detection tube method (FIG. 16), measured by an instrument analysis method or olfactory measurement method. When decrease in the blank was observed, the decrease was suitably corrected. When measuring by olfactory measuring method, the airbag spigot was opened for direct sniffing, or gas was transferred to an odor bag while wearing a mask to perform olfactory measurement in an autonomic respiration form. Measured air was not returned to the source).
Next, for amine odor (methyl mercaptan), the residual concentrations were detected and recorded for control (no specimen), 20 ml (cc) of distilled water, sodium hypochlorite (expressed as Na hypochlorite, 400 ppm), and chlorous acid aqueous solution (expressed as CAAS, 400 ppm) prior to spraying and 0 hour, 3 hours, 6 hours, 9 hours, and 24 hours after spraying. The experiment was conducted twice.

[5] = first experiment (Table 55), 0 h after spraying
[6] = first experiment (Table 55), 3 h after spraying
[7] = first experiment (Table 55), 6 h after spraying
[8] = first experiment (Table 55), 9 h after spraying
[9] = first experiment (Table 55), 24 h after spraying
[10] = first experiment (Table 55), before spraying
[11] = second experiment (Table 56), 0 h after spraying
[12] = second experiment (Table 56), 3 h after spraying
[13] = second experiment (Table 56), 6 h after spraying
[14] = second experiment (Table 56), 9 h after spraying
[15] = second experiment (Table 56), 24 h after spraying
[16] = second experiment (Table 56), before spraying

OCl [Sodium Hypochlorite, sodium hypochlorite]
sterilization/removal of pathogenic microbes in stacked treatment sheets (pathogenic microbes): able to sterilize pathogenic microbes from the first sheet | microbes in treatment sheet laid on imitation vomit ([1]; 1 sheet, Day 0 at 25° C.): <10 | microbes in treatment sheet laid on imitation vomit ([1]; 1 sheet, Day 7 at 25° C.): >10^6 | microbes in treatment sheet laid on imitation vomit ([1]; 2 sheets, Day 0 at 25° C.): <10 | microbes in treatment sheet laid on imitation vomit ([1]; 2 sheets, Day 7 at 25° C.): >10^6 | microbes in treatment sheet laid on imitation vomit ([1]; 3 sheets, Day 0 at 25° C.): <10 | microbes in treatment sheet laid on imitation vomit ([1]; 3 sheets, Day 7 at 25° C.): >10^6 | microbes in treatment sheet laid on imitation vomit ([1]; 4 sheets, Day 0 at 25° C.): <10 | microbes in treatment sheet laid on imitation vomit ([1]; 4 sheets, Day 7 at 25° C.): >10^6 | microbes in treatment sheet laid on imitation vomit ([1]; 5 sheets, Day 0 at 25° C.): <10 | microbes in treatment sheet laid on imitation vomit ([1]; 5 sheets, Day 7 at 25° C.): >10^6 | microbes in treatment sheet laid on imitation vomit ([1]; 6 sheets, Day 0 at 25° C.): <10 | microbes in treatment sheet laid on imitation vomit ([1]; 6 sheets, Day 7 at 25° C.): >10^6 | microbes in treatment sheet laid on imitation vomit ([1]; 8 sheets, Day 0 at 25° C.): <10 | microbes in treatment sheet laid on imitation vomit ([1]; 8 sheets, Day 7 at 25° C.): >10^6 | microbes in treatment sheet laid on imitation vomit ([1]; 10 sheets, Day 0 at 25° C.): <10 | microbes in treatment sheet laid on imitation vomit ([1]; 10 sheets, Day 7 at 25° C.): >10^6 | microbes in treatment sheet laid on imitation vomit ([1]; 20 sheets, Day 0 at 25° C.): <10 | microbes in treatment sheet laid on imitation vomit ([1]; 20 sheets, Day 7 at 25° C.): >10^6 | microbes in treatment sheet laid on imitation vomit ([1]; 30 sheets, Day 0 at 25° C.): <10 | microbes in treatment sheet laid on imitation vomit ([1]; 30 sheets, Day 7 at 25° C.): >10^6 | microbes in treatment sheet laid on imitation vomit ([2]; 1 sheet, Day 0 at 25° C.): <10 | microbes in treatment sheet laid on imitation vomit ([2]; 1 sheet, Day 7 at 25° C.): >10^6 | microbes in treatment sheet laid on imitation vomit ([2]; 2 sheets, Day 0 at 25° C.): <10 | microbes in treatment sheet laid on imitation vomit ([2]; 2 sheets, Day 7 at 25° C.): >10^6 | microbes in treatment sheet laid on imitation vomit ([2]; 3 sheets, Day 0 at 25° C.): <10 | microbes in treatment sheet laid on imitation vomit ([2]; 3 sheets, Day 7 at 25° C.): >10^6 | microbes in treatment sheet laid on imitation vomit ([2]; 4 sheets, Day 0 at 25° C.): <10 | microbes in treatment sheet laid on imitation vomit ([2]; 4 sheets, Day 7 at 25° C.): >10^6 | microbes in treatment sheet laid on imitation vomit ([2]; 5 sheets, Day 0 at 25° C.): <10 | microbes in treatment sheet laid on imitation vomit ([2]; 5 sheets, Day 7 at 25° C.): >10^6 | microbes in treatment sheet laid on imitation vomit ([2]; 6 sheets, Day 0 at 25° C.): <10 | microbes in treatment sheet laid on imitation vomit ([2]; 6 sheets, Day 7 at 25° C.): >10^6 | microbes in treatment sheet laid on imitation vomit ([2]; 8 sheets, Day 0 at 25° C.): <10 | microbes in treatment sheet laid on imitation vomit ([2]; 8 sheets, Day 7 at 25° C.): 1.1 × 10^4 | microbes in treatment sheet laid on imitation vomit ([2]; 10 sheets, Day 0 at 25° C.): <10 | microbes in treatment sheet laid on imitation vomit ([2]; 10 sheets, Day 7 at 25° C.): 7.1 × 10^2 | microbes in treatment sheet laid on imitation vomit ([2]; 20 sheets, Day 0 at 25° C.): <10 | microbes in treatment sheet laid on imitation vomit ([2]; 20 sheets, Day 7 at 25° C.): <10 | microbes in treatment sheet laid on imitation vomit ([2]; 30 sheets, Day 0 at 25° C.): <10 | microbes in treatment sheet laid on imitation vomit ([2]; 30 sheets, Day 7 at 25° C.): <10 | microbes in treatment sheet laid on imitation vomit ([3]; 1 sheet, Day 0 at 25° C.): <10 | microbes in treatment sheet laid on imitation vomit ([3]; 1 sheet, Day 7 at 25° C.): >10^6 | microbes in treatment sheet laid on imitation vomit ([3]; 2 sheets, Day 0 at 25° C.): <10 | microbes in treatment sheet laid on imitation vomit ([3]; 2 sheets, Day 7 at 25° C.): >10^6 | microbes in treatment sheet laid on imitation vomit ([3]; 3 sheets, Day 0 at 25° C.): <10 | microbes in treatment sheet laid on imitation vomit ([3]; 3 sheets, Day 7 at 25° C.): >10^6 | microbes in treatment sheet laid on imitation vomit ([3]; 4 sheets, Day 0 at 25° C.): <10 | microbes in treatment sheet laid on imitation vomit ([3]; 4 sheets, Day 7 at 25° C.): >10^6 | microbes in treatment sheet laid on imitation vomit ([3]; 5 sheets, Day 0 at 25° C.): <10 | microbes in treatment sheet laid on imitation vomit ([3]; 5 sheets, Day 7 at 25° C.): >10^6 | microbes in treatment sheet laid on imitation vomit ([3]; 6 sheets, Day 0 at 25° C.): <10 | microbes in treatment sheet laid on imitation vomit ([3]; 6 sheets, Day 7 at 25° C.): >10^6 | microbes in treatment sheet laid on imitation vomit ([3]; 8 sheets, Day 0 at 25° C.): <10 | microbes in treatment sheet laid on imitation vomit ([3]; 8 sheets, Day 7 at 25° C.): 1.1 × 10^4 | microbes in treatment sheet laid on imitation vomit ([3]; 10 sheets, Day 0 at 25° C.): <10 | microbes in treatment sheet laid on imitation vomit ([3]; 10 sheets, Day 7 at 25° C.): 7.1 × 10^2 | microbes in treatment sheet laid on imitation vomit ([3]; 20 sheets, Day 0 at 25° C.): <10 | microbes in treatment sheet laid on imitation vomit ([3]; 20 sheets, Day 7 at 25° C.): <10 | microbes in treatment sheet laid on imitation vomit ([3]; 30 sheets, Day 0 at 25° C.): <10 | microbes in treatment sheet laid on imitation vomit ([3]; 30 sheets, Day 7 at 25° C.): <10 | residual concentration of methyl mercaptan, after correction (Control = 100) [4, 5]: 22 | residual concentration of methyl mercaptan, before correction [4, 5]: 20 ppm | residual concentration of methyl mercaptan, after correction (Control = 100) [4, 6]: 0 | residual concentration of methyl mercaptan, before correction [4, 6]: 0 ppm | residual concentration of methyl mercaptan, after correction (Control = 100) [4, 7]: 0 | residual concentration of methyl mercaptan, before correction [4, 7]: 0 ppm | residual concentration of methyl mercaptan, after correction (Control = 100) [4, 8]: 14 | residual concentration of methyl mercaptan, before correction [4, 8]: 5 ppm | residual concentration of methyl mercaptan, after correction (Control = 100) [4, 9]: 25 | residual concentration of methyl mercaptan, before correction [4, 9]: 6 ppm | residual concentration of methyl mercaptan, after correction (Control = 100) [4, 10]: 100 | residual concentration of methyl mercaptan, before correction [4, 10]: 90 ppm | residual concentration of methyl mercaptan, after correction (Control = 100) [4, 11]: 11 | residual concentration of methyl mercaptan, before correction [4, 11]: 8 ppm | residual concentration of methyl mercaptan, after correction (Control = 100) [4, 12]: 11 | residual concentration of methyl mercaptan, before correction [4, 12]: 5 ppm | residual concentration of methyl mercaptan, after correction (Control = 100) [4, 13]: 12 | residual concentration of methyl mercaptan, before correction [4, 13]: 5 ppm | residual concentration of methyl mercaptan, after correction (Control = 100) [4, 14]: 24 | residual concentration of methyl mercaptan, before correction [4, 14]: 7 ppm | residual concentration of methyl mercaptan, after correction (Control = 100) [4, 15]: 35 | residual concentration of methyl mercaptan, before correction [4, 15]: 5 ppm | residual concentration of methyl mercaptan, after correction (Control = 100) [4, 16]: 100 | residual concentration of methyl mercaptan, before correction [4, 16]: 70 ppm
